{
  "source": "patent US20220339135A1",
  "about": "“COMPOSITIONS AND METHODS FOR MODULATING AN INFLAMMATORY RESPONSE” (Enzychem Lifesciences Corporation, priority 2019, published 2022)",
  "key": {"[1]": {"system": "intracellular ROS in HaCaT cells", "assay": "IMQ-induced intracellular ROS", "format": "cell-based", "settings": "IMQ/PLAG treated cells", "description": "HaCaT cells were divided into two groups: 1) IMQ treated group and 2) IMQ/PLAG treated group. For IMQ treated group, cells were stimulated with IMQ (5 μg/ml) for 0, 2.5, 5, 7.5, 10, 15, 30, 60, 120 minutes. For IMQ/PLAG treated group, cells were pre-incubated with PLAG (100 μg/ml) for 1 hour and then stimulated with IMQ (5 μg/ml) for 0, 2.5, 5, 7.5, 10, 15, 30, 60, 120 minutes. (A) To detect ADORA2A on the membrane surface, cells were fixed with 2% paraformaldehyde (Sigma-Aldrich) and were blocked with PBS containing 1% BSA (Gibco, Waltham, Mass., USA). They were incubated with rabbit anti-ADORA2A antibody (Thermo) and Alexa488 conjugated anti-rabbit IgG (Invitrogen) without permeabilization. (B) To detect intracellular ROS, cells were treated with FITC conjugated-CM-H2DCFDA (Invitrogen, Carlsbad, Calif., USA) for 30 min before PLAG treating. For confocal microscopy analysis, cells were washed with PBS and mounted in DAPI-containing fluorescence microscopy mounting medium (Invitrogen). Samples were analyzed with a laser scanning confocal microscope (Carl Zeiss, Oberkochen, Germany)."}, "NETosis of dHL-60 cells": {"system": "NETosis of dHL-60 cells", "assay": "IMQ-induced NETosis, confocal microscopy of DNA-elastase complex", "format": "cell-based, human", "settings": "PLAG 10 or 100 μg/mL, dose-dependent", "description": "HL-60 cells were differentiated (dHL-60) to neutrophil-like cells in the culture medium with the addition of 1.3% DMSO (Sigma) for 5 days in a humidified atmosphere at 37° C. without changing the medium. dHL-60 cells (2×10^5 cells/mL) were loaded with 5 μM fluo-4 AM for 45 minutes and washed three times with warmed modified (37° C.) HBSS buffer (137.93 mM NaCl, 5.33 mM KCl, 2 mM CaCl2, 1 mM MgSO4, 2.38 mM HEPES, 5.5 mM glucose, pH to 7.4). The cells were seeded on black-walled 96-well plates and then treated with vehicle (0.1% DMSO), imiquimod (10 μg/mL) or PLAG (10 or 100 μg/mL) just before measurement. Baseline fluorescence was measured before treatment, and fluorescence was read every 20 s for 700 s using an excitation wavelength of 494 nm, an emission wavelength of 516 nm in a FlexStation 3 microplate reader (Molecular Devices). Fluorescence values were reported as F/Fo according to the calculation: [ΔF=(494 nm)f/(516 nm)f−(494 nm)0/(516 nm)0]. […]\nHL-60 cells were harvested and detected extracellular DNA-elastase complex by using ELISA and visualized by using confocal microscopy (×400) or scanning electron microscope (SEM) (×8000). HL-60 cells were washed with PBS and mounted in DAPI-containing fluorescence microscopy mounting medium (Invitrogen). Samples were analyzed with a laser scanning confocal microscope (Carl Zeiss, Oberkochen, Germany)."}, "[2]": {"assay": "Micelle particle size by DLS and TEM", "format": "physicochemical", "settings": "micelles", "description": "The formation of micelles composed of PLAG or POPC was prepared in RPMI1640 medium by vigorous stirring at a final concentration of 10 mg/ml. The particle size of PLAG and POPC micelles was measured by dynamic light scattering (Zetasizer 3000HS, Malvern Instruments Ltd., UK). The morphological examination of the micelles was performed by transmission electron microscopy (TEM) by dropping the samples into the carbon films on the copper grid for viewing with 2% (weight per volume) phosphotungstic acid staining."}, "[3]": {"system": "chemo-radiation and scratch induced oral mucositis", "assay": "Chemo-radiation and scratch induced oral mucositis", "format": "in vivo, mice", "settings": "PLAG 250 mg/kg oral, n=7", "description": "For radiation therapy, mice received 1 Gy of gamma radiation with mice whole body. Mice were intraperitoneally administered 5-FU (Sigma Aldrich) at 50 mg/kg. For facilitating the risk of infection, mice were anesthetized with 2,2,2-tribromoethanol (150 mg/kg, Sigma Aldrich) by intraperitoneal injection, and then tongue was scratched 0.2 cm wound on a third of side at using the tip of an 18-gauge needle with an equal force and depth. PLAG (Enzychem Lifesciences) was stored in −80° C. refrigerator and was administered orally once with 250 mg/kg. Formulations were aggressively mixed to be cloudiness and were injected within 10 minutes.\nThe tongue was scratched 0.2 cm wound on a third of side at using the tip of an 18-gauge needle with an equal force and depth on Day 0, 7, 10, and 16. Mice were received 1 Gy of gamma radiation on Day 2 and 5-FU was administered intraperitoneally in a dose of 50 mg/kg on Days 4. For the group receiving PLAG, 250 mg/kg of PLAG was administered orally once daily. To check the oral mucositis, mice were anesthetized with 2,2,2-tribromoethanol (150 mg/kg, Sigma Aldrich) by intraperitoneal injection on Day 7, 10, 14, 18. Each group contained seven mice."}, "[4]": {"system": "chemo-radiation and PAK induced oral mucositis", "assay": "Chemo-radiation and PAK induced oral mucositis", "format": "in vivo, mice", "settings": "PLAG 250 mg/kg oral daily, n=19", "description": "To induce immunocompromised condition in mice of CRIN group and EC-18 group, mice were administered by intraperitoneal injection with 30 mg/kg of 5-FU (Sigma) once a day for 3 days (Sigma) and five days after the experiment initiated, 1Gy of γ-radiation at once. For the EC-18 group, EC-18 (Enzychem Lifesciences, Daejeon, Republic of Korea) was orally given at a dose of 250 mg/kg once a day during the study period. The experimental schedule is described in FIG. 1. On day 6 after the experiment initiated, all the mice of 2 groups (CRIN group, and EC-18 group) were anesthetized with 2% 2, 2, 2,-tribromoethanol by intraperitoneal injection and infected with P. aeruginosa K (PAK) by syringe in the tongue. 1 day after PAK injection, the condition of the tongue and survival rate of mice were monitored and recorded.\nP. aeruginosa K was cultured in LB broth or on LB agar plates overnight at 37° C. until they were in log-phase growth. […] The bacterial pellet was suspended to the appropriated number of colony-forming unit (CFU) per milliliter in PBS, as determined by optical density and plating out a serial dilution on broth agar plates. […]\nChemoradiotherapy induced immunocompromised mice were challenged with PAK. […] After the challenge, mice were monitored for 1 day, and the survival rate of mice was recorded."}},
  "data": [
    {"molecule": "CCCCC/C=C\\C/C=C\\CCCCCCCC(=O)OC(COC(C)=O)COC(=O)CCCCCCCCCCCCCCC", "note": "(racemic) [PLAG, 1-palmitoyl-2-linoleoyl-3-acetylglycerol]", "values": [
      {"measurement": "ROS formation starts", "setting": "[1]", "result": 2.5, "unit": "min"},
      {"measurement": "ROS returns to homeostatic levels", "setting": "[1]", "result": 10, "unit": "min"},
      {"measurement": "IMQ-induced NETosis", "setting": "NETosis of dHL-60 cells", "result": "promotes"},
      {"measurement": "average diameter (DLS)", "setting": "[2]", "result": 107.6, "unit": "nm"},
      {"measurement": "particle shape (TEM)", "setting": "[2]", "result": "spherical shape"},
      {"measurement": "survival rate after 18 days", "setting": "[3]", "result": 85, "unit": "%"},
      {"measurement": "survival rate after 7 days", "setting": "[4]", "result": 84, "unit": "%"}
    ]}
  ]
}
